Patent publication US7750184B2, “Vitamin D receptor modulators” (Eli Lilly and Company, priority 2003, dated 2010)
Like-named read-outs stand apart in the source and are kept apart here.

Key:
RXR-VDR heterodimer = target: T1, RXR-VDR heterodimer (Homo sapiens, UniProt P11473); assay: RXR-VDR heterodimerization assay (SaOS-2 cells); format: cell-based; settings: Gal4-RXR-DEF / VP16-VDR-LBD, luciferase reporter
T1 construct: Add the Gal4-RXR-DEF and VP16-VDR-LBD; expressed in transfected cells; host or cells: SaOS-2 cells
T1 sequence (P11473 127-423 limits assumed): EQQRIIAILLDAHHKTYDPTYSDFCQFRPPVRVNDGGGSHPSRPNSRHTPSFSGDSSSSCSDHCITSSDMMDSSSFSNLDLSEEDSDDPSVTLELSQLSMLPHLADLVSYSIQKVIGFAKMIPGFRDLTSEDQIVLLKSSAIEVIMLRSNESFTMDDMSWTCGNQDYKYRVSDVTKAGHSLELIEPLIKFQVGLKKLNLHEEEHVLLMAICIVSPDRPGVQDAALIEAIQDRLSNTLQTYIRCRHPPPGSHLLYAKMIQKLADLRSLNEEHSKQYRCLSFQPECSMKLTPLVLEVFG
T1 sequence (P19793 201-462 partner limits assumed): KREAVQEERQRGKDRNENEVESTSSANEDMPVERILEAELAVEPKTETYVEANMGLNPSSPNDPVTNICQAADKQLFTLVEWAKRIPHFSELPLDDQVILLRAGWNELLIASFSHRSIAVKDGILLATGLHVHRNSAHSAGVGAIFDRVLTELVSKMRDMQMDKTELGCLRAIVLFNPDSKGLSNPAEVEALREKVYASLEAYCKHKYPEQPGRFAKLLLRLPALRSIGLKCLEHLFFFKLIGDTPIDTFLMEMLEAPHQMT
From the text: 1. The RXR-VDR heterodimer Assay:
This assay provides the VDR activity of a test compound.
(1) Materials and Method for RXR-VDR Heterodimerization Assay:
Luciferase Assay Reagent: • Use Steady-Glo Luciferase Reagent from Promega (Cat # E2550) Consists of:
Add plain DMEM media to tubes for mixing the DNA
Add the Reporter gene pFR-LUC
Add the Gal4-RXR-DEF and VP16-VDR-LBD
Make a stock solution of the compounds in DMSO
Further dilute in D-MEM (Low Glucose—With out Phenol Red)
Read the plates after drug treatment
Add Steady-Glo Luciferase Reagent mixture/wells
Count each well using a Luminescence counter, Top Count NXT by Packard

VDR = target: T2, VDR (Homo sapiens, UniProt P11473); assay: Caco-2 cell co-transfection assay (VDR CTF); format: cell-based; settings: Caco-2 cells, pGal4-VDR-LBD co-transfection, luciferase reporter
T2 construct: the receptor expression vector pGal4-VDR-LBD (10 ng); expressed in transfected cells; host or cells: Caco-2 cells
T2 sequence (P11473 127-423 limits assumed): T1 sequence (P11473 127-423 limits assumed)
Protocol: 2. The Caco-2 Cell Co-Transfection Assay:
The Caco-2 cell assay is an indicator for the undesirable condition of hypercalcemia. This co-transfection assay is a surrogate assay for in vivo calcemic activity of VDR ligands. […] Preferred assay results are greater than 1000 nM.
(2) Materials and Method for The Caco-2 Cell Assay:
Caco-2 cells, grown in phenol red free, DMEM (Invitrogen, Carlsbad, Calif.) containing 10% charcoal-stripped FCS (Hyclone, Logan, Utah), were transfected with Fugene 6 reagent (Roche Diagnostics, Indianapolis, Ind.). Cells (5000/well) were plated 18 h before transfection in a 96 well plate. The Cells were transfected with Gal4-responsive reporter pFRLuc (150 ng, Stratagene, La Jolla Calif.) and the receptor expression vector pGal4-VDR-LBD (10 ng), along with Fugene 6 reagent (0.2 μl/well). The DNA-Fugene complex was formed by incubating the mixture for 30 min at room temperature. The cells were transfected in triplicate for 5 h, and treated with various concentrations of VDR ligands (form 0.01 nM to 10,000 nM concentration range) 18 h post-transfection. The luciferase activity was quantified using Steady-Glo reagent kit (Promega, Madison, Wis.) as per manufacturer's specifications.

rat osteocalcin promoter = assay: OCN (osteocalcin) promoter assay; format: cell-based; settings: RG-15 (ROS 17/2.8) cells, 48 hr treatment, luciferase reporter
Protocol: 3. The OCN (osteocalcin) Promoter Assay
The OCN Promoter Assay is an indicator and marker for osteoporosis. […] Preferred assay results are less than 50 nM.
(3) Materials and Method for the OCN Promoter Assay:
The activation of osteocalcin by VDR ligands was evaluated in a rat osteoblast-like cell line RG-15 (ROS 17/2.8) stably expressing rat osteocalcin promoter fused with luciferase reporter gene. […] Confluent RG-15 cells maintained in DMEM/F-12 medium (3:1) containing 5% FBS, 300 μg/ml G418 and at 37° C. under 5% CO2/95% air atmosphere were trypsinized (0.25% trypsin) and plated into white opaque 96-well cell culture plates (25000 cells/well). After 24 hr, cells (in DMEM/F-12 medium+2% FBS) were treated with various concentrations of compounds, dissolved in DMSO. The final DMSO concentration remained at 0.01% (v/v). After 48 hr treatment, the medium was removed, cells were lysed with 50 μl of lysis buffer (From Luciferase reporter assay system, Roche Diagnostics, Indianapolis, Ind.) and assayed for luciferase activity using the Luciferase Reporter Gene Assay kit from Boehringer Mannheim as per manufacturer's specifications.

KERtr cells = assay: Keratinocyte proliferation assay; format: cell-based; settings: Homo sapiens, 72 hr, BrdU incorporation, read-out: Kera. Prolif. IC50
Protocol: 5. The Keratinocte Proliferation Assay
This Assay is indicative for the treatment of psoriasis.
(5) The Keratinocyte Proliferation Assay:
KERtr cells (Human skin keratinocyte transformed with a retrovirus vector, obtained from ATCC) were plated in 96-well flat-bottomed plates (3000 cells/well) in 100 µl keratinocyte serum free medium supplemented with bovine pituitary extract in the absence of EGF (Life Technologies, Rockville, Md.) and incubated at 37° C. for two days. The cells were treated with various concentrations of VDR ligands (ten-fold serial dilution from 10,000 nM to 0.1 nM in triplicate), dissolved in 100 μl keratinocyte serum free medium supplemented with bovine pituitary extract in the absence of EGF and incubated at 37° C. for 72 hr. BrdU (5-bromo-2′-deoxyuridine) incorporation was analyzed as a measure of DNA replication (Cell proliferation ELISA kit, Roche Diagnostics, Indianapolis, Ind.) and absorbance was measured at 405 nm. Potency values (IC50) values were determined as the concentration (nM) of compound that elicited a half-maximal response.

[1] = system: IL-10 production in PBMCs; assay: IL-10 induction assay; format: cell-based; settings: PBMC; TPA/PHA stimulated human PBMCs, IL-10 immunoassay
From the text: 6. The IL-10 induction Assay
This is an in vitro efficacy assay for psoriasis, abscess and adhesion. Psoriasis involves both keratinocytes and immune cells. IL-10 is a unique cytokine because it is anti-inflammatory and immunosuppressive. This assay tells us whether a VDRM is able to function as an agonist in PBMCs (primary blood mononuclear cells) or not. A lower EC50 value is desirable in this assay since a compound with a lower EC50 value will be a better agonist in PBMCs.
(6) Materials and Method for Human IL-10 Induction Assay:
Isolation of Peripheral Blood Mononuclear Cells (PBMCs):
• A. Collect 50 ml of human blood and dilute with media, RPMI-1640. • B. Prepare sterile tubes with ficol. • C. Add diluted blood to tubes. • D. Centrifuge. • E. Discard the top layer and collect the cells from middle layer. • F. Divide all cells into four tubes and add media. • G. Centrifuge. • H. Aspirate off media and resuspend. • I. Collect all cells • J. Centrifuge. at 1200 rpm for 10 minutes. • K. Resuspend in RPMI-1640 with 2% FBS and count cells • Stimulation of PBMC: • L. Prepare TPA in DMSO. • M. Dissolve PHA in water. • N. Plate TPA/PHA treated PBMCs in well plates. • O. Incubate.
Treatment: • P. Prepare all compound dilutions in plain RPMI-1640 media. • Q. Add diluted compound. • R. Incubate. […]

[2] = in vivo, po
Protocol: (§1) The Mouse Hypercalcemia Assay is a six day hypercalcemia test for toxicity and selectivity. Acceptable test results are levels greater than 300 μg/kg/day. Preferred assay results are levels greater than 1000 μg/day.
(§2) (4) Materials and Method for the Mouse Hypercalcemia Assay:
(§3) Weanling, virus—antibody-free, five to six weeks old female DBF mice (Harlan, Indianapolis, Ind.) are used for all the studies. Animals are allowed to acclimate to local vivarium conditions for 2 days. […] The animals then are divided into groups with 4-5 mice per group. Different doses of test compounds prepared in 10% Ethanol and 90% sesame oil are administered to mice orally via gavage for 6 days. 1α-25(OH)2D3 0.5 μg/kg/d was also given to one group of mice as the positive control. […] Raw data of group differences is assessed by analysis of variance (ANOVA) using Fisher's protected least significant difference (PLSD) where the significance level was P<0.05.

[3] = Mouse hypercalcemia assay; settings: oral gavage for 6 days, serum ionized calcium 6 hours after last dosing
Protocol: as §1, §2, §3

Mouse Hypercal [2]	SMILES	EC50 (RXR-VDR heterodimer)	EC50 (VDR)	EC50 (rat osteocalcin promoter)	IC50 (KERtr cells)	IC50 [1]	EC50 (rat osteocalcin promoter; Rattus norvegicus, 48 h)	Mouse Hypercal [3]
–	CCC(CC)(c1ccc(OS(C)(=O)=O)cc1)c1ccc(OCC(O)C(C)(C)C)c(Cl)c1 (single isomer, unassigned) [Ex. 45, 51B, 3′-[3-chloro-4-(2-hydroxy-3,3-dimethylbutoxy)phenyl]-3′-(4-methylsulfonyloxyphenyl)pentane]	24 nM	353 nM	13 nM	27 nM	39.5 nM	–	–
0.06 µg/kg/day	C=C1/C(=C\C=C2/CCC[C@]3(C)[C@@H]([C@H](C)CCCC(C)(C)O)CC[C@@H]23)C[C@@H](O)C[C@@H]1O [AA, 1α,25-dihydroxyvitamin D3]	–	–	–	–	–	–	–
–	CCC(CC)(c1ccc(OCC(=O)C(C)(C)C)c(C)c1)c1ccc(N(C)S(C)(=O)=O)c(C)c1 [Ex. 18, N-(4-{1-[4-(3,3-Dimethyl-2-oxo-butoxy)-3-methyl-phenyl]-1-ethyl-propyl}-2-methyl-phenyl)-N-methyl-methanesulfonamide]	69.6 nM	485 nM	–	32 nM	–	7.62 nM	1500 µg/kg/day
–	CCCS(=O)(=O)N(c1ccc(C(CC)(CC)c2ccc(OCC(=O)C(C)(C)C)c(C)c2)cc1C)S(=O)(=O)CCC [Ex. 25, N-(4-{1-[4-(3,3-Dimethyl-2-oxo-butoxy)-3-methyl-phenyl]-1-ethyl-propyl}-2-methyl-phenyl)-N,N-bis-1-propanesulfonamide]	47.3 nM	1290 nM	–	14.6 nM	–	34.2 nM	–
–	CCCS(=O)(=O)Nc1ccc(C(CC)(CC)c2ccc(OCC(=O)C(C)(C)C)c(C)c2)cc1C [Ex. 26, N-(4-{1-[4-(3,3-Dimethyl-2-oxo-butoxy)-3-methyl-phenyl]-1-ethyl-propyl}-2-methyl-phenyl)-1-propanesulfonamide]	5.7 nM	333 nM	–	4.4 nM	–	3.69 nM	<1000 µg/kg/day
–	CCC(CC)(c1ccc(OCC(=O)C(C)(C)C)cc1)c1ccc(OS(C)(=O)=O)c(C)c1 [Ex. 36, 3′-[4-(2-oxo-3,3-dimethylbutoxy)-phenyl]-3′-[4-methylsulfonyloxy-3-methylphenyl]pentane]	15.2 nM	592 nM	–	36 nM	–	45.5 nM	>3000 µg/kg/day
–	CCC(CC)(c1ccc(OS(C)(=O)=O)cc1)c1ccc(OCC(=O)C(C)(C)C)c(Cl)c1 [Ex. 42, 3′-[3-chloro-4-(2-oxo-3,3-dimethylbutoxy)phenyl]-3′-[4-(methylsulfonyloxy)phenyl]pentane]	495 nM	728 nM	–	9 nM	–	25.1 nM	<1000 µg/kg/day
–	CCC(CC)(c1ccc(OS(=O)(=O)C(F)(F)F)cc1)c1ccc(OCC(O)C(C)(C)C)c(Cl)c1 (stereo not shown) [Ex. 47, 53, 3′-[3-chloro-4-(2-hydroxy-3.3-dimethylbutoxy)phenyl]-3′-(4-trifluoromethylsulfonyloxyphenyl)pentane]	12.5 nM	431 nM	–	300 nM	–	92.5 nM	–
